Laboratory results published in US10519152B2, “Compounds and their use in treating cancer” (AstraZeneca AB, priority 2017, dated 2019).

Target: T1, Estrogen Receptor (ERα) in MCF-7 human ductal carcinoma breast cell line (Homo sapiens, UniProt P03372)
T1 construct: endogenous in cells; host or cells: MCF-7
T1 sequence (P03372 1-595): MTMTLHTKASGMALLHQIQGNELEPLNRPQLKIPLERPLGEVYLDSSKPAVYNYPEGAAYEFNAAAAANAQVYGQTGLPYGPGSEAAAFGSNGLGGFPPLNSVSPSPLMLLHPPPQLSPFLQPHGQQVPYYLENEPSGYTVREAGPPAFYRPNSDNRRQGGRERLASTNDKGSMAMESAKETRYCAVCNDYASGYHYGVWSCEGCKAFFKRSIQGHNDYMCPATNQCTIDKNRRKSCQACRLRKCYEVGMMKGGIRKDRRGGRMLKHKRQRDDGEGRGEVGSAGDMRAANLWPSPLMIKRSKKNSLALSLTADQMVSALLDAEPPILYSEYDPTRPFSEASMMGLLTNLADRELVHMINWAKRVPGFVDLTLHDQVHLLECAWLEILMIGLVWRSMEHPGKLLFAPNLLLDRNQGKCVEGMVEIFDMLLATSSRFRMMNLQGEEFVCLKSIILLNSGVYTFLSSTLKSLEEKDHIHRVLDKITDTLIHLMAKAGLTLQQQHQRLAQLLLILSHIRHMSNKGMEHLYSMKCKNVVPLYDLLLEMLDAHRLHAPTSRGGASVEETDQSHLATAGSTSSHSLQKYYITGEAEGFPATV
Experiment: MCF-7 ER degradation assay (cell based immuno-fluorescence)
Details: MCF-7 cells; for ER degradation ≥ 90% at 0.3 μM: ER degradation by fulvestrant at 0.3 μM is defined as 100%; for DC50: 18-22 hours incubation, 50% reduction of ERα expression, single experiment or average of two or more, read-out: MCF-7 ER degradation IC50
Outline: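 MCF-7 human ductal carcinoma breast cells were seeded at 3.75×10^4 cells per mL (40 μL per well) in 384 well plates with phenol red free DMEM containing 2 mM L-Glutamine and 5% (v/v) Charcoal/Dextran treated foetal calf serum. After overnight culture, compounds were acoustically dispensed, incubated 18-22 hours, then cells were formaldehyde-fixed and immunostained for ERα.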

SMILES	ER degradation ≥ 90% at 0.3 μM	DC50 [nM]
Cc1ncsc1-c1ccc(CNC(=O)[C@@H]2C[C@@H](O)CN2C(=O)[C@@H](NC(=O)CCCCOCCCCCOc2cc(F)c([C@@H]3c4[nH]c5ccccc5c4C[C@@H](C)N3CC(C)(C)F)c(F)c2)C(C)(C)C)cc1 [Example 113, (2S,4R)-1-((S)-2-(5-((5-(3,5-Difluoro-4-((1R,3R)-2-(2-fluoro-2-methylpropyl)-3-methyl-2,3,4,9-tetrahydro-1H-pyrido[3,4-b]indol-1-yl)phenoxy)pentyl)oxy)pentanamido)-3,3-dimethylbutanoyl)-4-hydroxy-N-(4-(4-methylthiazol-5-yl)benzyl)pyrrolidine-2-carboxamide]	••	0.9
Cc1ncsc1-c1ccc(CNC(=O)[C@@H]2C[C@@H](O)CN2C(=O)[C@@H](NC(=O)COCCC(F)(F)CCOc2cc(F)c([C@@H]3c4[nH]c5ccccc5c4C[C@@H](C)N3CC(C)(C)F)c(F)c2)C(C)(C)C)cc1 [Example 130, (2S,4R)-1-((S)-2-(2-((5-(3,5-Difluoro-4-((1R,3R)-2-(2-fluoro-2-methylpropyl)-3-methyl-2,3,4,9-tetrahydro-1H-pyrido[3,4-b]indol-1-yl)phenoxy)-3,3-difluoropentyl)oxy)acetamido)-3,3-dimethylbutanoyl)-4-hydroxy-N-(4-(4-methylthiazol-5-yl)benzyl)pyrrolidine-2-carboxamide]	•	0.5
Cc1ncsc1-c1ccc(CNC(=O)[C@@H]2C[C@@H](O)CN2C(=O)[C@@H](NC(=O)COCCCCCOCCOc2ccc([C@@H]3c4[nH]c5ccccc5c4C[C@@H](C)N3CC(F)F)nc2)C(C)(C)C)cc1 [Example 10, (2S,4R)-1-((S)-2-(2-((5-(2-((6-((1S,3R)-2-(2,2-Difluoroethyl)-3-methyl-2,3,4,9-tetrahydro-1H-pyrido[3,4-b]indol-1-yl)pyridin-3-yl)oxy)ethoxy)pentyl)oxy)acetamido)-3,3-dimethylbutanoyl)-4-hydroxy-N-(4-(4-methylthiazol-5-yl)benzyl)pyrrolidine-2-carboxamide]	••	12
Cc1ncsc1-c1ccc([C@H](C)NC(=O)[C@@H]2C[C@@H](O)CN2C(=O)[C@@H](NC(=O)COCCCCCOc2cc(F)c([C@@H]3c4[nH]c5ccccc5c4C[C@@H](C)N3CC(C)(C)F)c(F)c2)C(C)(C)C)cc1 [Example 28, (2S,4R)-1-((S)-2-(2-((5-(3,5-Difluoro-4-((1R,3R)-2-(2-fluoro-2-methylpropyl)-3-methyl-2,3,4,9-tetrahydro-1H-pyrido[3,4-b]indol-1-yl)phenoxy)pentyl)oxy)acetamido)-3,3-dimethylbutanoyl)-4-hydroxy-N—((S)-1-(4-(4-methylthiazol-5-yl)phenyl)ethyl)pyrrolidine-2-carboxamide]	•	0.8
Cc1ncsc1-c1ccc([C@H](C)NC(=O)[C@@H]2C[C@@H](O)CN2C(=O)[C@@H](NC(=O)CCOCCCCCCCOc2cc(F)c([C@@H]3c4[nH]c5ccccc5c4C[C@@H](C)N3CC(C)(C)F)c(F)c2)C(C)(C)C)cc1 [Example 114, (2S,4R)-1-((S)-2-(3-((7-(3,5-difluoro-4-((1R,3R)-2-(2-fluoro-2-methylpropyl)-3-methyl-2,3,4,9-tetrahydro-1H-pyrido[3,4-b]indol-1-yl)phenoxy)heptyl)oxy)propanamido)-3,3-dimethylbutanoyl)-4-hydroxy-N—((S)-1-(4-(4-methylthiazol-5-yl)phenyl)ethyl)pyrrolidine-2-carboxamide]	••	3.6
Cc1ncsc1-c1ccc(CNC(=O)[C@@H]2C[C@@H](O)CN2C(=O)[C@@H](NC(=O)COc2cccc(COc3cc(F)c([C@@H]4c5[nH]c6ccccc6c5C[C@@H](C)N4CC(C)(C)F)c(F)c3)c2)C(C)(C)C)cc1 [Example 20, (2S,4R)-1-((S)-2-(2-(3-((3,5-difluoro-4-((1R,3R)-2-(2-fluoro-2-methylpropyl)-3-methyl-2,3,4,9-tetrahydro-1H-pyrido[3,4-b]indol-1-yl)phenoxy)methyl)phenoxy)acetamido)-3,3-dimethylbutanoyl)-4-hydroxy-N-(4-(4-methylthiazol-5-yl)benzyl)pyrrolidine-2-carboxamide]	•	1.7
Cc1ncsc1-c1ccc(CNC(=O)[C@@H]2C[C@@H](O)CN2C(=O)[C@@H](NC(=O)CCCCCCOCCCOc2cc(F)c([C@@H]3c4[nH]c5ccccc5c4C[C@@H](C)N3CC(C)(C)F)c(F)c2)C(C)(C)C)cc1 [Example 110, (2S,4R)-1-((S)-2-(7-(3-(3,5-difluoro-4-((1R,3R)-2-(2-fluoro-2-methylpropyl)-3-methyl-2,3,4,9-tetrahydro-1H-pyrido[3,4-b]indol-1-yl)phenoxy)propoxy)heptanamido)-3,3-dimethylbutanoyl)-4-hydroxy-N-(4-(4-methylthiazol-5-yl)benzyl)pyrrolidine-2-carboxamide]	••	1.7
Cc1ncsc1-c1ccc(CNC(=O)[C@@H]2C[C@@H](O)CN2C(=O)[C@@H](NC(=O)COCCCCCCCCOc2cc(F)c([C@@H]3c4[nH]c5ccccc5c4C[C@@H](C)N3CC(C)(C)F)c(F)c2)C(C)(C)C)cc1 [Example 12, (2S,4R)-1-((S)-2-(2-((8-(3,5-Difluoro-4-((1R,3R)-2-(2-fluoro-2-methylpropyl)-3-methyl-2,3,4,9-tetrahydro-1H-pyrido[3,4-b]indol-1-yl)phenoxy)octyl)oxy)acetamido)-3,3-dimethylbutanoyl)-4-hydroxy-N-(4-(4-methylthiazol-5-yl)benzyl)pyrrolidine-2-carboxamide]	••	6.6
Cc1ncsc1-c1ccc(CNC(=O)[C@@H]2C[C@@H](O)CN2C(=O)[C@@H](NC(=O)CCOCCCCCCCOc2cc(F)c([C@@H]3c4[nH]c5ccccc5c4C[C@@H](C)N3CC(C)(C)F)c(F)c2)C(C)(C)C)cc1 [Example 115, (2S,4R)-1-((S)-2-(3-((7-(3,5-difluoro-4-((1R,3R)-2-(2-fluoro-2-methylpropyl)-3-methyl-2,3,4,9-tetrahydro-1H-pyrido[3,4-b]indol-1-yl)phenoxy)heptyl)oxy)propanamido)-3,3-dimethylbutanoyl)-4-hydroxy-N-(4-(4-methylthiazol-5-yl)benzyl)pyrrolidine-2-carboxamide]	••	3.4
Cc1ncsc1-c1ccc(CNC(=O)[C@@H]2C[C@@H](O)CN2C(=O)[C@@H](NC(=O)CCCCCCCOCCOc2cc(F)c([C@@H]3c4[nH]c5ccccc5c4C[C@@H](C)N3CC(C)(C)F)c(F)c2)C(C)(C)C)cc1 [Example 111, (2S,4R)-1-((S)-2-(8-(2-(3,5-Difluoro-4-((1R,3R)-2-(2-fluoro-2-methylpropyl)-3-methyl-2,3,4,9-tetrahydro-1H-pyrido[3,4-b]indol-1-yl)phenoxy)ethoxy)octanamido)-3,3-dimethylbutanoyl)-4-hydroxy-N-(4-(4-methylthiazol-5-yl)benzyl)pyrrolidine-2-carboxamide]	•	0.8
Cc1ncsc1-c1ccc(CNC(=O)[C@@H]2C[C@@H](O)CN2C(=O)[C@@H](NC(=O)COCCCCCN(C)CCOc2cc(F)c([C@@H]3c4[nH]c5ccccc5c4C[C@@H](C)N3CC(C)(C)F)c(F)c2)C(C)(C)C)cc1 [Example 49, (2S,4R)-1-((S)-2-(2-((5-((2-(3,5-difluoro-4-((1R,3R)-2-(2-fluoro-2-methylpropyl)-3-methyl-2,3,4,9-tetrahydro-1H-pyrido[3,4-b]indol-1-yl)phenoxy)ethyl)(methyl)amino)pentyl)oxy)acetamido)-3,3-dimethylbutanoyl)-4-hydroxy-N-(4-(4-methylthiazol-5-yl)benzyl)pyrrolidine-2-carboxamide]	•	0.9
Cc1ncsc1-c1ccc(CNC(=O)[C@@H]2C[C@@H](O)CN2C(=O)[C@@H](NC(=O)CCCCCCCCCCOc2cc(F)c([C@@H]3c4[nH]c5ccccc5c4C[C@@H](C)N3CC(C)(C)F)c(F)c2)C(C)(C)C)cc1 [Example 32, (2S,4R)-1-((S)-2-(11-(3,5-Difluoro-4-((1R,3R)-2-(2-fluoro-2-methylpropyl)-3-methyl-2,3,4,9-tetrahydro-1H-pyrido[3,4-b]indol-1-yl)phenoxy)undecanamido)-3,3-dimethylbutanoyl)-4-hydroxy-N-(4-(4-methylthiazol-5-yl)benzyl)pyrrolidine-2-carboxamide]	•	13
